Among the data in patent publication US8178538B2, “Pyridazinones” (Hoffmann-La Roche Inc., priority 2008, dated 2012) are IC50 values, retold here.

For this assay, the target named is T1, PDE10A2 (Homo sapiens, UniProt Q9Y233).
T1 construct: residues serine 449 to aspartate 789; His6 (H6) with thrombin cleavage site (N, cleaved yes); made in house; host or cells: E. coli BL21(DE3) pLysS
Description: PDE10A2 inhibition, Scintillation Proximity Assay (SPA). The settings on record: catalytic domain of human PDE10A2 (S449-D789), 0.25 nM enzyme, 50 nM cGMP + 50 nM [3H]-cGMP, 30 minutes at room temperature. In kind it is biochemical. The procedure: The following tests were carried out in order to determine the activity of the compounds of the present invention. PDE10 activity of the compounds of the present invention is determined using a Scintillation Proximity Assay (SPA)-based method similar to the one previously described (Fawcett, L. et al., Proc Natl Acad Sci USA (2000) 97(7):3702-3707).
PDE10A1 and PDE10A2 are two splice variants of PDE10A. There are these 2 splice variants known, which differ in the N-terminal part of the protein. The catalytic domains of PDE10A1 and PDE10A2 are identical. The assay for PDE10A2 described below is therefore also representative for PDE10A1 and also for PDE10A in general.
The PDE10A2 assay was performed in a two step procedure in 96-well micro titer plates. The reaction mixture of 80 μl contained 20 mM HEPES/10 mM MgCl2/[…] (pH 7.5), 50 nM cGMP (Sigma) and 50 nM [^3H]-cGMP (GE Healthcare), 0.25 nM PDE10A2 with or without a specific test compound. A range of concentrations of the potential inhibitor was used to generate data for calculating the concentration of inhibitor resulting in 50% of the effect (e.g. IC50, the concentration of the competitor inhibiting PDE10A2 activity 50%). Non-specific activity was tested without the enzyme. The reaction was initiated by addition of the substrate solution (cGMP and [^3H]-cGMP) and allowed to progress for 30 minutes at room temperature. The reaction was terminated by transferring 50 μl of the reaction mixture into an OptiPlate (Perkin Elmer) containing 25 μl of YSi-SPA scintillation beads (GE Healthcare) in 18 mM zinc sulphate solution (stop reagent). After 1 h under shaking, the plate was centrifuged one minute at 1000 rpm to allow beads to settle. Afterwards, radioactive counts were measured on a Perkin Elmer TopCount Scintillation plate reader.
The catalytic domain of human PDE10A2, residues serine 449 to aspartate 789, was amplified by PCR using cDNA (Origene) and the oligonucleotides 5′-GGGGACAAGTTT […]-3′ (SEQ ID NO. 1) (with AttB1 recombination site in bold and thrombin protease cleavage site in italics) and 5′-[…] GCTG-3′ (SEQ ID NO. 2) (with AttB2 recombination site in bold) which conferred Gateway recombination sites. The PCR product was used in a BP recombination reaction with pDONR221 to generate pENTR Thm-PDE10A2(S449-D789) which was DNA sequence verified and then used in an LR recombination reaction with a Gateway modified version of pET11a. The resulting expression vector, placT7.2H6-(gw1)-Thm-PDE10A2(S449-D789) was DNA sequence confirmed and transformed into E. coli strain BL21(DE3) pLysS and recombinant protein was produced in TB medium at 20° C. by induction to a final IPTG concentration of 0.5 mM at an optical density of 1.0 at 600 nm for 20 hours. About 30% of the protein was in the soluble fraction of the cell homogenate. The protein was purified using sequential chromatography on Ni-NTA and HiTrapQ/HiTrapS. After thrombin digest at room temperature a HiTrapChelating/HiTrap Benzamindin chromatography removed impurities, uncleaved protein and thrombin. Final purification of PDE10A2(S449-D789) was performed on a Superdex 75 size exclusion chromatography equilibrated with 25 mM HEPES pH 8.4, 0.15 M NaCl. The yield of pure protein was 2 mg/liter of culture volume is relatively low. The purity of the protein was >95%, monomeric and monodisperse as shown by SDS-PAGE, HPLC and analytical ultracentrifugation.

T1 sequence (Q9Y233 715-1055): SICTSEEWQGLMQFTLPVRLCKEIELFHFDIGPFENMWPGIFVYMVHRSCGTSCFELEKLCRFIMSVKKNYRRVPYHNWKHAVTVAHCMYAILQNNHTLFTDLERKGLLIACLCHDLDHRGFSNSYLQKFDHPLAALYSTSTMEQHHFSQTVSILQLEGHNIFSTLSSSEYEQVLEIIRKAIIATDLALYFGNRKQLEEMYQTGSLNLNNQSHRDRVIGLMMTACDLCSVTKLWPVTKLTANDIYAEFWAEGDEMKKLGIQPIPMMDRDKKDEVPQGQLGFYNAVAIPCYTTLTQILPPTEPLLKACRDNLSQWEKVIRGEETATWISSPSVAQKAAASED

A word on the IC50: it is the concentration at which inhibition is half-maximal. In the case of `Cc1ccccc1-n1nccc1-c1nn(-c2ccc(C(F)(F)F)cc2)ccc1=O` [Example 216, 3-(2-o-Tolyl-2H-pyrazol-3-yl)-1-(4-trifluoromethyl-phenyl)-1H-pyridazin-4-one], the IC50 worked out at 20 nM.
Regarding `CS(=O)(=O)c1cccc(-n2ccc(=O)c(-c3ccnn3-c3cccc(Cl)c3)n2)c1` [Example 64, 3-[2-(3-Chloro-phenyl)-2H-pyrazol-3-yl]-1-(3-methanesulfonyl-phenyl)-1H-pyridazin-4-one], the IC50 was 39 nM.
As to `O=c1ccn(-c2ccc(OC(F)F)cc2)nc1-c1ccnn1-c1cccc(OC(F)(F)F)c1` [Example 165, 1-(4-Difluoromethoxy-phenyl)-3-[2-(3-trifluoromethoxy-phenyl)-2H-pyrazol-3-yl]-1H-pyridazin-4-one], the IC50 came out at 51 nM.
As for `CS(=O)(=O)c1cccc(-n2ccc(=O)c(-c3ccnn3-c3ccccc3)n2)c1` [Example 30, 1-(3-Methanesulfonyl-phenyl)-3-(2-phenyl-2H-pyrazol-3-yl)-1H-pyridazin-4-one], the figure is 45 nM; as for `O=c1ccn(-c2cccc(OC(F)(F)F)c2)nc1-c1ccnn1-c1cccc2ncccc12` [Example 203, 3-(2-Quinolin-5-yl-2H-pyrazol-3-yl)-1-(3-trifluoromethoxy-phenyl)-1H-pyridazin-4-one], 13 nM.
For `Cc1ccccc1-n1nccc1-c1nn(-c2ccccc2)ccc1=O` [Example 4, 1-Phenyl-3-(2-o-tolyl-2H-pyrazol-3-yl)-1H-pyridazin-4-one] the value was 50 nM; for `O=c1ccn(-c2ccc(C(F)(F)F)cc2)nc1-c1ccnn1-c1ccc(Cl)c2ccccc12` [Example 237, 3-[2-(4-Chloro-naphthalen-1-yl)-2H-pyrazol-3-yl]-1-(4-trifluoromethyl-phenyl)-1H-pyridazin-4-one], 101 nM.
As for `O=c1ccn(-c2cccc(OC(F)(F)F)c2)nc1-c1ccnn1-c1ccccc1F` [Example 28, 3-[2-(2-Fluoro-phenyl)-2H-pyrazol-3-yl]-1-(3-trifluoromethoxy-phenyl)-1H-pyridazin-4-one], the figure is 17 nM; as for `O=c1ccn(-c2ccc(S(=O)(=O)C(F)(F)F)cc2)nc1-c1ccnn1-c1ccccc1F` [Example 232, 3-[2-(2-Fluoro-phenyl)-2H-pyrazol-3-yl]-1-(4-trifluoromethanesulfonyl-phenyl)-1H-pyridazin-4-one], 12 nM.
As to `O=c1ccn(-c2ccccc2)nc1-c1ccnn1-c1ccnc(Cl)c1` [Example 25, 3-[2-(2-Chloro-pyridin-4-yl)-2H-pyrazol-3-yl]-1-phenyl-1H-pyridazin-4-one], the IC50 was determined as 378 nM.
For `O=c1ccn(-c2cccc(OC(F)F)c2)nc1-c1ccnn1-c1cc(F)ccc1F` [Example 116, 1-(3-Difluoromethoxy-phenyl)-3-[2-(2,5-difluoro-phenyl)-2H-pyrazol-3-yl]-1H-pyridazin-4-one] the value was 33 nM.
For `COc1cccc(-n2ccc(=O)c(-c3ccnn3-c3ccccc3)n2)c1` [Example 18, 1-(3-Methoxy-phenyl)-3-(2-phenyl-2H-pyrazol-3-yl)-1H-pyridazin-4-one] the value was 80 nM; for `O=c1ccn(-c2ccc3c(c2)OC(F)(F)O3)nc1-c1ccnn1-c1ccc2c(c1)OCCO2` [Example 101, 1-(2,2-Difluoro-benzo[1,3]dioxol-5-yl)-3-[2-(2,3-dihydro-benzo[1,4]dioxin-6-yl)-2H-pyrazol-3-yl]-1H-pyridazin-4-one], 37 nM.
As for `O=c1ccn(-c2ccccc2)nc1-c1ccnn1-c1ccccc1F` [Example 183, 3-[2-(2-Fluoro-phenyl)-2H-pyrazol-3-yl]-1-phenyl-1H-pyridazin-4-one], the figure is 47 nM.
Consider `O=c1ccn(-c2ccccc2)nc1-c1ccnn1-c1ccncc1` [Example 15, 1-Phenyl-3-(2-pyridin-4-yl-2H-pyrazol-3-yl)-1H-pyridazin-4-one], for which the IC50 came to 167 nM.
